In PubChem BioAssay AID1963862 (Molecular Pharmacology Branch, DTP, NCI, 2024):

Tested on: KRAS patient-derived spheroids with HUVEC/MSC, viability
Experiment: Anticancer human tumor 941728-121-R-J1-PDC patient-derived lung adenocarcinoma cell line growth inhibition [KRAS2]
Details: for IC50: curve of first compound; for viability, T/C: stronger effect = lower value
Text: Multicellular complex tumor spheroid response to RAS pathway inhibitors in combination with a targeted agents in patient-derived cell lines with oncogenic KRAS variants from multiple cancer types
A high-throughput screen of multi-cell type tumor spheroids was designed to identify active combinations of targeted small molecules and KRAS pathway inhibitors. Complex spheroids include a stromal component modeled by human endothelial cells (HUVEC) and fibroblasts modeled by human mesenchymal stem cells (MSCs). The concentration ranges selected for each drug and investigational agent were based upon clinically achievable concentrations if the clinical Cmax of the agent was known.
Compounds. The drugs and investigational agents: BI-3406 (NSC825286), BAY-293 (NSC824723), batoprotafib (TNO155; NSC825523), sotorasib (AMG 510; NSC818433), MRTX1257 (NSC819558), elimusertib (BAY 1895344; NSC800525), molibresib (GSK525762; NSC774829), temuterkib (LY3214996; NSC803410), venetoclax (NSC766270), alisertib (NSC759677), olaparib (NSC753686), talazoparib (NSC767125), erdafitinib (NSC781556), ipatasertib (NSC767898), cabozantinib (NSC761068), nintedanib (NSC756659), abemaciclib (NSC768073), docetaxel (NSC628503), trametinib (NSC758246), and sapanisertib (NSC764658) were obtained from the National Cancer Institute (NCI) Developmental Therapeutics Program Chemical Repository. The FDA-approved anticancer drug set is available from the Developmental Therapeutics Program. […] The stock solutions were prepared in dimethyl sulfoxide (DMSO, Sigma-Aldrich, St. Louis, MO, cat. D2650) at 800-fold the tested concentration and stored at -70 degrees C prior to their use. All drugs and investigational agents were tested over a range starting from a high concentration at or near the clinical Cmax and decreasing in half-log increments. If the clinical Cmax for an agent had not been determined, the highest concentration tested was 10 microM.
Cell Culture. All cells were maintained in an incubator at 37 degrees C and 5% CO2 with 95% humidity. The PDC lines were cultured according to standard operating procedures established by the NCI PDMR (https://pdmr.cancer.gov/sops/default.htm). Briefly, all PDCs were thawed and cultured in Matrigel-coated flasks prepared with a working solution of 1X Ham's F-12 nutrient mix, without supplementation (Invitrogen, Waltham, MA, cat. 11765054), 100 U/mL penicillin-streptomycin (Invitrogen, cat. 15140122), and 2.5% Matrigel (Corning Inc., Corning, NY, cat. 354248) for the first three passages. All PDCs were cultured in complete DMEM/F-12 media containing advanced DMEM/F-12 (Invitrogen, cat. 12634028), 4.9% defined fetal bovine serum, heat inactivated (HyClone Laboratories Inc., Logan, UT, cat. SH30070.03HI), 389 ng/mL hydrocortisone (Sigma-Aldrich, cat. H4001), 9.7 ng/mL human EGF recombinant protein (Invitrogen, cat. PHG0313), 23.4 microg/mL adenine (Sigma-Aldrich, cat. A2786), 97.3 U/mL penicillin-streptomycin (Invitrogen, cat. 15140122), 1.9 mM L-glutamine (Invitrogen, cat. 25030081), and 9.7 microM Y-27632 dihydrochloride (Tocris Bioscience, Bristol, United Kingdom, cat. 1254). The PDCs were cultured in complete DMEM/F12 media without 9.7 microM Y-27632 dihydrochloride for at least two passages prior to the screen. The established cell line HOP-62 was cultured in RPMI 1640 medium, HEPES (Invitrogen, cat. 22400105) with 10% defined fetal bovine serum (HyClone Laboratories Inc., cat. SH30070.03) and 2 mM L-glutamine (Invitrogen, cat. 25030081). The pooled donor HUVEC were cultured in endothelial cell growth medium 2 (PromoCell, Heidelberg, Germany, cat. C-22011) and the hMSC were cultured in mesenchymal stem cell growth medium 2 (PromoCell, cat. C-28009). For all experiments, HUVEC and hMSC were used at passages </=5, while the malignant cell lines were used at passages </=15. […]

[1] = second compound 0.1 µM, first compound 0.0316 µM
[2] = second compound 0.1 µM, first compound 0.1 µM
[3] = second compound 0.1 µM, first compound 0.316 µM
[4] = second compound 0.1 µM, first compound 1 µM
[5] = second compound 0.1 µM, first compound 3.16 µM
[6] = second compound 0.1 µM, first compound 10 µM
[7] = second compound 0.316 µM, first compound 0.0316 µM
[8] = second compound 0.316 µM, first compound 0.1 µM
[9] = second compound 0.316 µM, first compound 0.316 µM
[10] = second compound 0.316 µM, first compound 1 µM
[11] = second compound 0.316 µM, first compound 3.16 µM
[12] = second compound 0.316 µM, first compound 10 µM
[13] = second compound 1 µM, first compound 0.0316 µM
[14] = second compound 1 µM, first compound 0.1 µM
[15] = second compound 1 µM, first compound 0.316 µM
[16] = second compound 1 µM, first compound 1 µM
[17] = second compound 1 µM, first compound 3.16 µM
[18] = second compound 1 µM, first compound 10 µM
[19] = second compound 3.16 µM, first compound 0.0316 µM
[20] = second compound 3.16 µM, first compound 0.1 µM
[21] = second compound 3.16 µM, first compound 0.316 µM
[22] = second compound 3.16 µM, first compound 1 µM
[23] = second compound 3.16 µM, first compound 3.16 µM
[24] = second compound 3.16 µM, first compound 10 µM
[25] = second compound 10 µM, first compound 0.0316 µM
[26] = second compound 10 µM, first compound 0.1 µM
[27] = second compound 10 µM, first compound 0.316 µM
[28] = second compound 10 µM, first compound 1 µM
[29] = second compound 10 µM, first compound 3.16 µM
[30] = second compound 10 µM, first compound 10 µM
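Further: spheroids exposed to agents for seven days before readout.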

| Compound | IC50 (second compound 0.1 µM) [nM] | IC50 (second compound 0.316 µM) [nM] | IC50 (second compound 1 µM) [nM] | IC50 (second compound 3.16 µM) [nM] | IC50 (second compound 10 µM) [nM] | viability, T/C [1] [%] | viability, T/C [2] [%] | viability, T/C [3] [%] | viability, T/C [4] [%] | viability, T/C [5] [%] | viability, T/C [6] [%] | viability, T/C [7] [%] | viability, T/C [8] [%] | viability, T/C [9] [%] | viability, T/C [10] [%] | viability, T/C [11] [%] | viability, T/C [12] [%] | viability, T/C [13] [%] | viability, T/C [14] [%] | viability, T/C [15] [%] | also measured |
| --- | --- | --- | --- | --- | --- | --- | --- | --- | --- | --- | --- | --- | --- | --- | --- | --- | --- | --- | --- | --- | --- |
| COc1cc(Nc2ncc3c(n2)-c2ccc(Cl)cc2C(c2c(F)cccc2OC)=NC3)ccc1C(=O)O + C=CC(=O)N1CCN(c2nc(=O)n(-c3c(C)ccnc3C(C)C)c3nc(-c4c(O)cccc4F)c(F)cc23)C(C)C1 | < 31.6 | < 31.6 | < 31.6 | < 31.6 | < 31.6 | 24.9 | 17.2 | 16 | 22.7 | 25.7 | 17.3 | 29.3 | 26.2 | 26.3 | 25.5 | 24.4 | 16.7 | 17.9 | 27.4 | 31 | viability, T/C [16]: 26.4%; viability, T/C [17]: 24.1%; viability, T/C [18]: 21%; viability, T/C [19]: 25.5%; viability, T/C [20]: 29.6%; viability, T/C [21]: 31.5%; viability, T/C [22]: 29%; viability, T/C [23]: 25.7%; viability, T/C [24]: 22.4%; viability, T/C [25]: 37%; viability, T/C [26]: 38.5%; viability, T/C [27]: 35.2%; viability, T/C [28]: 32%; viability, T/C [29]: 28.1%; viability, T/C [30]: 25.8% |
| COc1cc2nccc(Oc3ccc(NC(=O)C4(C(=O)Nc5ccc(F)cc5)CC4)cc3)c2cc1OC + C=CC(=O)N1CCN(c2nc(=O)n(-c3c(C)ccnc3C(C)C)c3nc(-c4c(O)cccc4F)c(F)cc23)C(C)C1 | < 31.6 | < 31.6 | < 31.6 | < 31.6 | < 31.6 | 14.6 | 14.5 | 12.8 | 11.6 | 7.75 | 8.03 | 15 | 15.7 | 11.6 | 11.6 | 6.81 | 8.86 | 17.4 | 16.8 | 14.5 | viability, T/C [16]: 12.3%; viability, T/C [17]: 6.93%; viability, T/C [18]: 8.12%; viability, T/C [19]: 17.6%; viability, T/C [20]: 16.4%; viability, T/C [21]: 15.3%; viability, T/C [22]: 16.7%; viability, T/C [23]: 7.9%; viability, T/C [24]: 8.84%; viability, T/C [25]: 19.1%; viability, T/C [26]: 19.5%; viability, T/C [27]: 15.3%; viability, T/C [28]: 13%; viability, T/C [29]: 8.1%; viability, T/C [30]: 9.93% |
